What is called IC50 is the concentration needed to halve the response being measured.

Sequence of Human PKK (P03952 391-638): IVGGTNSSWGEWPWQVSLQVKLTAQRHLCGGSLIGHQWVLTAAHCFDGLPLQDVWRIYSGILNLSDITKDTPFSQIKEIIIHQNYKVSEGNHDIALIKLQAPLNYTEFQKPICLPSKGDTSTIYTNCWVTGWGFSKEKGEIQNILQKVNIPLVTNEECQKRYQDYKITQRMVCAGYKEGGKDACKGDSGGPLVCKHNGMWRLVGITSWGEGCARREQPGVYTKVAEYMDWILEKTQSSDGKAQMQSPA
Sequence of Human PKK (P03952 20-390 partner): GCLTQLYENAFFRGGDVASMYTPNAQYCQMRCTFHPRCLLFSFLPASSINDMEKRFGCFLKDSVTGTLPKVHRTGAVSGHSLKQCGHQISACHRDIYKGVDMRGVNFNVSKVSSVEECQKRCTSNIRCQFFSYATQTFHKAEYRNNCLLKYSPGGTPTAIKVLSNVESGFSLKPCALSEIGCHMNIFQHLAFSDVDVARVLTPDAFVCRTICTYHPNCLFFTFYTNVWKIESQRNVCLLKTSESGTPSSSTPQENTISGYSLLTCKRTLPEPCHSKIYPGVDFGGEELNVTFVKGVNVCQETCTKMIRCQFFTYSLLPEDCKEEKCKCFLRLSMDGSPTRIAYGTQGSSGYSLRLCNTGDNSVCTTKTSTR

This test has as its target Human PKK (Homo sapiens (Human), UniProt P03952). Nature of the test: Inhibition of PKK using an endpoint assay (human PKK). The class given is biochemical. The following applies: 1 h at rt, 0.10 μM H-Pro-Phe-Arg-AMC. Here is the method:
The ability of compounds of formula (I) to inhibit plasma kallikrein (PKK), Factor XIIa (FXIIa), Factor XIa (FXIa), Factor Xa (FXa), Factor IIa (alpha-thrombin; FIIa), plasmin, trypsin, tissue kallikrein 1 (TK1), Factor Vila (FVIIa), or FVIIa complexed with Tissue Factor, phospholipids and CaCl2) (FVIIa/TF/PL/CaCl2) was determined using the following biochemical assays in assay buffer (100 mM Tris, 150 mM NaCL, adjusted to a pH of 7.8 with HCl, and containing 0.1% (w/v) BSA and 0.05% (v/v) Tween20) in the presence of 1% (v/v) DMSO:
Subsequently, PPACK II (Calbiochem) was added as a stop solution to achieve a final concentration of 1 μM and fluorescence was measured using an Envision Reader (PerkinElmer) with the wavelength excitation setting of 355 nm and the wavelength emission setting of 460 nm. The number of the compound corresponds to the number of the Example in the experimental section.
As to `Cc1cc(Cl)cc(CNC(=O)c2cnn(Cc3ccc(N4CC5CC5C4)nc3C)c2)c1-n1cnnn1` (stereo not drawn) [Example 4], the IC50 stood at 82 nM.

In turn, `Cc1nc(N2CC3CC3C2)ccc1Cn1cc(C(=O)NCc2c(-n3cnnn3)ccc(Cl)c2F)c(Cl)n1` (stereo not drawn) [Example 7] yielded an IC50 of 0.8 nM. This IC50 lies about 100-fold lower than the previous one.

Take `Cc1nc(N2CC3C(C2)C3(F)F)ccc1Cn1cc(C(=O)NCc2cc(Cl)ccc2-n2cnnn2)c2cncnc21` (stereo not drawn) [Example 8]: half-maximal inhibition (IC50) was put at 1 nM.

`Cc1nc(N2CC3CC3C2)ccc1Cn1cc(C(=O)NCc2c(-n3cnnn3)ccc(Cl)c2F)c(C(F)F)n1` (stereo not drawn) [Example 10] gave an IC50 of 0.5 nM.

Compound `COCc1nn(Cc2ccc(N3CC4C(C3)C4(F)F)nc2C)cc1C(=O)NCc1c(-n2cnnn2)ccc(Cl)c1F` (stereo not drawn) [Example 11] gave an IC50 of 0.6 nM.

`COCc1nn(Cc2ccc(N3CC4C(C3)C4(F)F)nc2C)cc1C(=O)NCc1cc(Cl)ccc1-n1cnnn1` (stereo not drawn) [Example 12] returned an IC50 of 0.9 nM.

`COCc1nn(Cc2ccc(N3CC4CC4C3)nc2C)cc1C(=O)NCc1c(-n2cnnn2)ccc(Cl)c1F` (stereo not drawn) [Example 14] came in with an IC50 of 0.6 nM. This IC50 lies about 1.5-fold lower than the previous one.

`Cc1nc(N2CC3CC3C2)ccc1Cn1cc(C(=O)NCc2c(-n3cnnn3)ccc(Cl)c2F)c2cncnc21` (stereo not drawn) [Example 16]: the IC50 was 0.6 nM.

Take `Cc1nc(N2CC3C(C2)C3(F)F)ccc1Cn1cc(C(=O)NCc2c(-n3cnnn3)ccc(Cl)c2F)c(C)n1` (stereo not drawn) [Example 17]: the concentration for half-maximal inhibition (IC50) was 0.4 nM. The IC50 values of the last two compounds are within 1.5-fold of each other.

For the compound `Cc1nc(N2CC3C(C2)C3(F)F)ccc1Cn1cc(C(=O)NCc2cc(Cl)ccc2-n2cnnn2)c(C)n1` (stereo not drawn) [Example 18], the IC50 turned out to be 1 nM.

Consider `Cc1nc(N2CC3CC3C2)ccc1Cn1cc(C(=O)NCc2cc(Cl)ccc2-n2cnnn2)c(C)n1` (stereo not drawn) [Example 19], for which 0.7 nM corresponded to half-maximal inhibition (IC50).

Consider `Cc1nc(N2CC3CC3C2)ccc1Cn1cc(C(=O)NCc2c(-n3cnnn3)ccc(Cl)c2F)c(C)n1` (stereo not drawn) [Example 20], for which the IC50 was 0.4 nM.

The compound `COc1nn(Cc2ccc(N3CC4CC4C3)nc2C)cc1C(=O)NCc1c(-n2cnnn2)ccc(Cl)c1F` (stereo not drawn) [Example 22] registered an IC50 of 1 nM.

As to `Cc1nc(N2CC3C(C2)C3(F)F)ncc1Cn1cc(C(=O)NCc2c(-n3cnnn3)ccc(Cl)c2F)c2cncnc21` (stereo not drawn) [Example 23], the IC50 was found to be 1 nM. This counts as single-digit nanomolar.

For the compound `Cc1nc(N2CC3C(C2)C3(F)F)ncc1Cn1cc(C(=O)NCc2cc(Cl)ccc2-n2cnnn2)c2cncnc21` (stereo not drawn) [Example 24], the IC50 is 2 nM. This IC50 is about 2-fold higher than that of the compound before.

The compound `COCc1nn(Cc2ccc(N3CC4(CC4)C3)nc2C)cc1C(=O)NCc1cc(Cl)ccc1-n1cnnn1` [Example 25] yielded an IC50 of 1 nM.

`Cc1nc(N2CC3CC3C2)ncc1Cn1cc(C(=O)NCc2c(-n3cnnn3)ccc(Cl)c2F)c2cncnc21` (stereo not drawn) [Example 26] came in with an IC50 of 0.9 nM.

In turn, `Cc1nc(N2CC3CC3C2)ncc1Cn1cc(C(=O)NCc2cc(Cl)ccc2-n2cnnn2)c2cncnc21` (stereo not drawn) [Example 27] had an IC50 of 3 nM.

In the case of `Cc1nc(N2CC3(CC3)C2)ccc1Cn1cc(C(=O)NCc2c(-n3cnnn3)ccc(Cl)c2F)c(C)n1` [Example 28], 14 nM corresponded to half-maximal inhibition (IC50).

Compound `Cc1nc(N2CC3(CC3)C2)ccc1Cn1cc(C(=O)NCc2cc(Cl)ccc2-n2cnnn2)c(C)n1` [Example 29] displayed an IC50 of 2 nM.

Compound `Cc1nc(N2CC3CC3C2)ncc1Cn1cc(C(=O)NCc2c(-n3cnnn3)ccc(Cl)c2F)c(C)n1` (stereo not drawn) [Example 30] returned an IC50 of 0.8 nM. This IC50 is about 2.5-fold lower than that of the compound before.

The compound `Cc1nc(N2CC3CC3C2)ncc1Cn1cc(C(=O)NCc2cc(Cl)ccc2-n2cnnn2)c(C)n1` (stereo not drawn) [Example 31] yielded an IC50 of 2 nM.

Turning to `COCc1nn(Cc2cnc(N3CC4C(C3)C4(F)F)nc2C)cc1C(=O)NCc1c(-n2cnnn2)ccc(Cl)c1F` (stereo not drawn) [Example 32], half-maximal inhibition (IC50) required 1 nM.

Compound `Cc1nc(N2CC3C(C2)C3(F)F)ncc1Cn1cc(C(=O)NCc2c(-n3cnnn3)ccc(Cl)c2F)c(C)n1` (stereo not drawn) [Example 33] returned an IC50 of 0.8 nM. This IC50 and that of the compound before are within 1.5-fold of each other.

For `Cc1nc(N2CC3C(C2)C3(F)F)ncc1Cn1cc(C(=O)NCc2cc(Cl)ccc2-n2cnnn2)c(C)n1` (stereo not drawn) [Example 34], the concentration for half-maximal inhibition (IC50) was 1 nM.

As to `COCc1nn(Cc2cnc(N3CC4CC4C3)nc2C)cc1C(=O)NCc1c(-n2cnnn2)ccc(Cl)c1F` (stereo not drawn) [Example 35], the IC50 was 1 nM. That is a single-digit nanomolar value.

In turn, `COCc1nn(Cc2cnc(N3CC4CC4C3)nc2C)cc1C(=O)NCc1cc(Cl)ccc1-n1cnnn1` (stereo not drawn) [Example 36] registered an IC50 of 5 nM. This IC50 is about 5-fold higher than that of the compound before.

As to `Cc1nc(N2CC3(CC3)C2)ncc1Cn1cc(C(=O)NCc2cc(Cl)ccc2-n2cnnn2)c(C)n1` [Example 37], 2 nM corresponded to half-maximal inhibition (IC50).

Compound `Cc1nc(N2CC3(CC3)C2)ncc1Cn1cc(C(=O)NCc2c(-n3cnnn3)ccc(Cl)c2F)c(C)n1` [Example 38] displayed a half-inhibitory concentration (IC50) of 0.7 nM.

On to `Cc1nc(N2CC3(CC3)C2)ncc1Cn1cc(C(=O)NCc2cc(Cl)ccc2-n2cnnn2)cn1` [Example 39], for which half-maximal inhibition (IC50) was put at 3 nM. Against the preceding compound, the IC50 is about 4.3-fold higher.

`Cc1nc(N2CC3(CC3)C2)ncc1Cn1cc(C(=O)NCc2c(-n3cnnn3)ccc(Cl)c2F)cn1` [Example 40] returned an IC50 of 0.5 nM.

`COCc1nn(Cc2cnc(N3CC4(CC4)C3)nc2C)cc1C(=O)NCc1cc(Cl)ccc1-n1cnnn1` [Example 41] came in with an IC50 of 6 nM.

In turn, `Cc1nc(N2CC3CC3C2)ccc1Cn1cc(C(=O)NCc2c(-n3cnnn3)ccc(Cl)c2F)c(-c2cnn(C)c2)n1` (stereo not drawn) [Example 43] returned an IC50 of 0.4 nM.

`Cc1nc(N2CC3CC3C2)ccc1Cn1cc(C(=O)NCc2cc(Cl)ccc2-n2cnnn2)c2cccnc21` (stereo not drawn) [Example 50] gave a half-inhibitory concentration (IC50) of 9 nM.

As to `O=C(NCc1cc(Cl)ccc1-n1cnnn1)c1cnn(Cc2cnc(N3CC4C(C3)C4(F)F)c(Br)c2)c1` (stereo not drawn) [Example 51], 2 nM corresponded to half-maximal inhibition (IC50).

Consider `Cc1nc(N2CC3(CC3)C2)ccc1Cn1cc(C(=O)NCc2c(-n3cnnn3)ccc(Cl)c2F)cn1` [Example 53], for which the IC50 is 0.2 nM.

`COC[C@H]1[C@H]2CN(c3ccc(Cn4cc(C(=O)NCc5cc(Cl)ccc5-n5cnnn5)cn4)c(C)n3)C[C@@H]12` [Example 55] yielded an IC50 of 3 nM. This IC50 lies about 15-fold higher than the previous one.

Turning to `Cc1nc(N2C[C@@H]3[C@@H](O)[C@@H]3C2)ccc1Cn1cc(C(=O)NCc2cc(Cl)ccc2-n2cnnn2)cn1` [Example 56], it took 6 nM to reach half-maximal inhibition (IC50).

`Cc1nc(N2CC3(CC3)C2)ncc1Cn1cc(C(=O)NCc2cc(Cl)ccc2-n2cnnn2)c2cncnc21` [Example 57] displayed an IC50 of 5 nM.

As to `Cc1nc(N2CCC3(COC3)C2)ccc1Cn1cc(C(=O)NCc2cc(Cl)ccc2-n2cnnn2)cn1` [Example 61, N-{[5-chloro-2-(1H-1,2,3,4-tetrazol-1-yl)phenyl]methyl}-1-[(2-methyl-6-{2-oxa-6-azaspiro[3.4]octan-6-yl}pyridin-3-yl)methyl]-1H-pyrazole-4-carboxamide], the IC50 stood at 12 nM.

In turn, `Cc1nc(N2C[C@@H]3CNC(=O)[C@@H]3C2)ccc1Cn1cc(C(=O)NCc2cc(Cl)ccc2-n2cnnn2)cn1` [Example 62, 1-({6-[(3aS,6aS)-4-oxo-octahydropyrrolo[3,4-c]pyrrol-2-yl]-2-methylpyridin-3-yl}methyl)-N-{[5-chloro-2-(1H-1,2,3,4-tetrazol-1-yl)phenyl]methyl}-1H-pyrazole-4-carboxamide] yielded an IC50 of 3 nM. This IC50 lies about 4-fold lower than the previous one.

With `Cc1nc(N2CC3(CC(O)C3)C2)ccc1Cn1cc(C(=O)NCc2cc(Cl)ccc2-n2cnnn2)cn1` [Example 64, N-{[5-chloro-2-(1H-1,2,3,4-tetrazol-1-yl)phenyl]methyl}-1-[(6-{6-hydroxy-2-azaspiro[3.3]heptan-2-yl}-2-methylpyridin-3-yl)methyl]-1H-pyrazole-4-carboxamide], the IC50 was determined as 225 nM.

These data come from patent US12091399B2, “Phenyltetrazole derivatives as plasma kallikrein inhibitors” (Boehringer Ingelheim International GmbH, priority 2018, dated 2024).
